# Laboratory results from US8916526B2, “Flavanone derivative” (National University Corporation Okayama University, priority 2009, dated 2014).
# Key:
# [1] = test system: Methicillin-resistant S. aureus OM481; test: In vitro infectivity assay (MIC), Exp. Ex. 2-1; type: cell-based, Staphylococcus aureus; details: Gram-positive, microdilution, MIC after 24 h
# Experimental: (§1) The antibacterial activities were measured based on broth dilution techniques of international standards (Clinical Laboratory Standards Institute: CLSI). The activities were shown by minimum inhibitory concentrations (MICs) determined by inoculating the above-mentioned strains at a concentration of about 10^5 […] into Mueller-Hinton broth (manufactured by Difco) containing 0.85% NaCl in 96-well microplates and incubating the plates at 35° C. for 24 hours. Measurement was carried out three times.
# (§2) The antibacterial activities of the compounds of the present invention against various strains such as vancomycin-resistant enterococci (VRE), vancomycin intermediate-resistant Staphylococcus aureus (VISA), methicillin-resistant Staphylococcus aureus (MRSA), and methicillin-sensitive Staphylococcus aureus (MSSA) were examined. Of the bacteria used in MIC measurement in this test example, clinical bacteria of MRSA (OM481 strain and OM584 strain) were supplied from Okayama University Hospital (Japan). An MRSA strain N315, a vancomycin intermediate-resistant Staphylococcus aureus (VISA) strain Mu50, and a methicillin-sensitive Staphylococcus aureus (MSSA) strain FDA 209P were used as controls. Vancomycin-resistant enterococcus (VRE) strains NCTC 12201 and FN-1 were supplied from the National Institute of Infectious Disease (Japan).
# [2] = test system: Methicillin-resistant S. aureus N315; test: In vitro infectivity assay (MIC), Exp. Ex. 2-1; type: cell-based, Staphylococcus aureus; details: Gram-positive, microdilution, MIC after 24 h
# Experimental: as §1, §2
# [3] = test system: Methicillin sensitive S. aureus 209P; test: In vitro infectivity assay (MIC), Exp. Ex. 2-1; type: cell-based, Staphylococcus aureus; details: Gram-positive, microdilution, MIC after 24 h
# Experimental: as §1, §2
# [4] = test system: Methicillin-resistant S. aureus OM584; test: In vitro infectivity assay (MIC), Exp. Ex. 2-1; type: cell-based, Staphylococcus aureus; details: Gram-positive, microdilution, MIC after 24 h
# Experimental: as §1, §2
# [5] = test system: Methicillin-resistant S. aureus COL; test: In vitro infectivity assay (MIC), Exp. Ex. 2-1; type: cell-based, Staphylococcus aureus; details: Gram-positive, microdilution, MIC after 24 h
# Experimental: as §1, §2
# [6] = test system: Vancomycin intermediate-resistant Staphylococcus aureus Mu50; test: In vitro infectivity assay (MIC), Exp. Ex. 2-1; type: cell-based; details: Gram-positive, microdilution, MIC after 24 h
# Experimental: as §1, §2
# [7] = test system: Vancomycin-resistant enterococci FN-1; test: In vitro infectivity assay (MIC), Exp. Ex. 2-1; type: cell-based; details: Gram-positive; microdilution, MIC after 24 h
# Experimental: as §1, §2
# [8] = test system: Vancomycin-resistant enterococci NCTC 12201; test: In vitro infectivity assay (MIC), Exp. Ex. 2-1; type: cell-based; details: Gram-positive; microdilution, MIC after 24 h
# Experimental: as §1, §2
# Escherichia coli K-12 = test: Antibacterial activity (MIC) against Gram-negative strains, microdilution; type: cell-based; details: for MIC (Gram-nagative) K-12: MIC after 24 h
# Experimental: as §1
# [9] = test system: Pseodomonas aeruginosa PAOI; test: as above; type: cell-based; details: MIC after 24 h
# Experimental: as §1
# [10] = test system: Streptococcus pneumoniae R6; test: In vitro infectivity assay (MIC), Exp. Ex. 2-1; type: cell-based; details: Gram-positive; microdilution, MIC after 24 h
# E. coli DNA gyrase = biological target: T1, E. coli DNA gyrase (Escherichia coli, UniProt P0AES4+P0AES6); test: DNA gyrase inhibition (supercoiling kit), Exp. Ex. 2-2; type: biochemical; details: supercoiling activity, 37° C., 30 minutes; read-out: IC50 (E. coli DNA gyrase inhibitions)
# T1 construct: purchased John Innes Enterprises #K0001
# Experimental: As a kit for measurement of DNA gyrase of Escherichia coli, a product purchased from John Innes Enterprises (Gyrase Supercoiling assay kit #K0001) was used. Relaxed DNA was modified with gyrase into supercoiled DNA, and reaction products were separated by electrophoresis depending on the sizes of the molecular weights to examine anti-gyrase effects (IC50). 1 unit (1 U) of DNA gyrase and […] of relaxed pBR322 DNA were added to […] of the reaction solution, and the mixture was allowed to react at 37° C. for 30 minutes in the presence of 35 mM Tris-HCl (pH 7.5), 24 mM KCl, 4 mM MgCl2, 2 mM DTT, 1.8 mM spermidine, 1 mM ATP, 6.5% (w/v) glycerol, and 0.1 mg/ml BSA. The reactions were stopped using […] of a reaction stop solution (40% sucrose, 100 mM Tris-HCl (pH 7.5), 1 mM EDTA, 0.5 mg/ml bromophenol blue).
# [11] = biological target: T2, Escherichia coli Topoisomerase IV (Escherichia coli, UniProt P0AFI2+P20083); test: Topoisomerase IV inhibition (decatenation kit), Exp. Ex. 2-3; type: biochemical; details: decatenation of kDNA, 37° C., 30 minutes; read-out: IC50 (E. coli topoisomerase IV inhibitions)
# T2 construct: purchased John Innes Enterprises
# Experimental: (§3) Staphylococcus aureus Topoisomerase IV and Escherichia coli Topoisomerase IV were purchased from John Innes Enterprises. 1 unit of topoisomerase IV was cultured with 200 ng of kinetoplast DNA (kDNA) in 30 L of a reaction solution at 37° C. for 30 minutes under the conditions of 50 mM Tris-HCl (pH 7.5) (S. aureus)/50 mM HEPES-KOH (pH 7.6) (E. coli), 5 mM MgCl2 (S. aureus)/5 mM magnesium acetate (E. coli), 350 mM potassium glutamate (S. aureus)/100 mM potassium glutamate (E. coli), 5 mM dithiotheri (S. aureus)/10 mM dithiotheri (E. coli), 1.5 mM ATP (S. aureus)/1 mM ATP (E. coli), and 40% (w/v) glycerol. The reactions were stopped by adding 8 L of a reaction stop solution (40% sucrose, 100 mM Tris.HCl (pH 7.5), 1 mM EDTA, 0.5 mg/ml bromophenol blue). Agarose gel (1.0%) was poured into TAE (40 mM Tris acetate, 2 mM EDTA).
# [12] = biological target: T3, Staphylococcus aureus Topoisomerase IV (Staphylococcus aureus, UniProt P0C1S7+P0C1U9); test: as above; type: biochemical; details: decatenation of kDNA, 37° C., 30 minutes; read-out: IC50 (S. aureus topoisomerase IV inhibitions)
# T3 construct: purchased John Innes Enterprises
# Experimental: as §3
# T2 sequence (P20083 whole entry): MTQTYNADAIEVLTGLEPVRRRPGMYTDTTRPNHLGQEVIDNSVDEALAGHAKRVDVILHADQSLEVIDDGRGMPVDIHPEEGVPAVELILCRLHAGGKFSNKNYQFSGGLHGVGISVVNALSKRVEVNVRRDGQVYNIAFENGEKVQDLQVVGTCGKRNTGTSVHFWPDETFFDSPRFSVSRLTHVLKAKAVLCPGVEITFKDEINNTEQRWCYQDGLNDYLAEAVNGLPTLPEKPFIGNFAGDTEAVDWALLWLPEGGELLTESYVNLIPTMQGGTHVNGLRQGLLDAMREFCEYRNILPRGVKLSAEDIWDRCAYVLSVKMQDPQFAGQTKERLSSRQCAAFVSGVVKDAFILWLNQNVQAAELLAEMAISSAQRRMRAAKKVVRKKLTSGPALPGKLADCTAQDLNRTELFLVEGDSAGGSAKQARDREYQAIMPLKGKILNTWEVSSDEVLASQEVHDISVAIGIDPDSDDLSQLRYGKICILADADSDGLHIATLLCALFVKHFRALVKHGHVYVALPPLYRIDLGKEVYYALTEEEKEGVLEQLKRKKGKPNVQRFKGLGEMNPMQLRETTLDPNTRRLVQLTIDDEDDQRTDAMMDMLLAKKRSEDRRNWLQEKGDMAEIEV
# T2 sequence (P0AFI2 whole entry): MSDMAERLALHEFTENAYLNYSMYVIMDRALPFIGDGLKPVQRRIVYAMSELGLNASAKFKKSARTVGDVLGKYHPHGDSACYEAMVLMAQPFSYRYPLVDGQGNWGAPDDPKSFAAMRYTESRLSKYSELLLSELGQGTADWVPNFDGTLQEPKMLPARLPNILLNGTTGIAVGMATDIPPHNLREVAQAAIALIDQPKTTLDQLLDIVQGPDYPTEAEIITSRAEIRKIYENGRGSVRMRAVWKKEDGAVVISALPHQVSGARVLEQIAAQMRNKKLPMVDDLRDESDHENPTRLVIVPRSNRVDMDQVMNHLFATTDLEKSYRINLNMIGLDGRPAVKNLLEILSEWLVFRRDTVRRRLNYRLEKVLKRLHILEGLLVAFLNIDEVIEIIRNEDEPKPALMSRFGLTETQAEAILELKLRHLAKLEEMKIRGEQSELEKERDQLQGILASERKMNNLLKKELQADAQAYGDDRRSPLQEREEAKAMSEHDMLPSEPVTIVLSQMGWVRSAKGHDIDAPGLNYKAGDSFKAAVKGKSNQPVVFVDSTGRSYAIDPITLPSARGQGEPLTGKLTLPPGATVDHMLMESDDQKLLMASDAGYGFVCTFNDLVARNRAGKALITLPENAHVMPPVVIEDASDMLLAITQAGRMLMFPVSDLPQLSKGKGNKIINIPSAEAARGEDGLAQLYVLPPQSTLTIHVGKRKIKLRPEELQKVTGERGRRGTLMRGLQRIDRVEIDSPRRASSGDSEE
# T3 sequence (P0C1U9 whole entry): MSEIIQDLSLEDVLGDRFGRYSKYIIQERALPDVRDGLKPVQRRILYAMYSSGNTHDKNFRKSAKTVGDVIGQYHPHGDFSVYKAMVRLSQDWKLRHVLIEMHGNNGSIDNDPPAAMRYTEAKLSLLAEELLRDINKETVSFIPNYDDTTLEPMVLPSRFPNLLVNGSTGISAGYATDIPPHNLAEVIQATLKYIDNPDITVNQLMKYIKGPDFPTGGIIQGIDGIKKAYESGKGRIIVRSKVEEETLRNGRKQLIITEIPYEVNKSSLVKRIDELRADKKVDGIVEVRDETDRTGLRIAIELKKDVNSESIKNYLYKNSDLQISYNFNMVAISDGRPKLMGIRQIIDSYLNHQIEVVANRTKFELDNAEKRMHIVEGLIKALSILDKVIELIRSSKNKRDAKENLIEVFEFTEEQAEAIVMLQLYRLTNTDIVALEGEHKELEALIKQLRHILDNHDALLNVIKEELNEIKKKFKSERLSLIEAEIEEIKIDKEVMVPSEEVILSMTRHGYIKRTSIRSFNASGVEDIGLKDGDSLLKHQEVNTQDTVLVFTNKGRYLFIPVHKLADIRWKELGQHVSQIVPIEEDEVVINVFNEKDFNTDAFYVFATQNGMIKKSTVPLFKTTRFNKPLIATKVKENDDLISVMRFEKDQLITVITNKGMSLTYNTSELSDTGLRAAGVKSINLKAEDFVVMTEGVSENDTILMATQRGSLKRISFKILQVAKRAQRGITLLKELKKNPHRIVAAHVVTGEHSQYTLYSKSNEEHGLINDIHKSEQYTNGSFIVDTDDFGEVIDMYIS
# T3 sequence (P0C1S7 whole entry): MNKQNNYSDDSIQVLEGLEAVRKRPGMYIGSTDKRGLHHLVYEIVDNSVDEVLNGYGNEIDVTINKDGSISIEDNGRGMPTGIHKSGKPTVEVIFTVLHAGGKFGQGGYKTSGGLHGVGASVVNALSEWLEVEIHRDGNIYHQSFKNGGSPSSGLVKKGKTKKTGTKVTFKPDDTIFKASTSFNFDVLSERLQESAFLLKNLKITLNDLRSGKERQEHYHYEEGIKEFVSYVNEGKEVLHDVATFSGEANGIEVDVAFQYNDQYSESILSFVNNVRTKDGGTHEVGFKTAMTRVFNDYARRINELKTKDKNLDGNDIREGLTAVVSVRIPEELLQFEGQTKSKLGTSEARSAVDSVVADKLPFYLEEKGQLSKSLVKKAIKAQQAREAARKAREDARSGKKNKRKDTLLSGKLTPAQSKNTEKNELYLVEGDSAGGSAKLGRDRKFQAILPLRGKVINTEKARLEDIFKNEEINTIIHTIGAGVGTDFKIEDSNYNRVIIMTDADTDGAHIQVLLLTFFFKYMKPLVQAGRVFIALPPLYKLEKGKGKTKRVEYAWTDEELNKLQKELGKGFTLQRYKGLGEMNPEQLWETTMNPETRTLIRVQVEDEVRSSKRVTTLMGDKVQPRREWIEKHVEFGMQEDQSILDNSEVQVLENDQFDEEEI
# T1 sequence (P0AES4 whole entry, one chain of several): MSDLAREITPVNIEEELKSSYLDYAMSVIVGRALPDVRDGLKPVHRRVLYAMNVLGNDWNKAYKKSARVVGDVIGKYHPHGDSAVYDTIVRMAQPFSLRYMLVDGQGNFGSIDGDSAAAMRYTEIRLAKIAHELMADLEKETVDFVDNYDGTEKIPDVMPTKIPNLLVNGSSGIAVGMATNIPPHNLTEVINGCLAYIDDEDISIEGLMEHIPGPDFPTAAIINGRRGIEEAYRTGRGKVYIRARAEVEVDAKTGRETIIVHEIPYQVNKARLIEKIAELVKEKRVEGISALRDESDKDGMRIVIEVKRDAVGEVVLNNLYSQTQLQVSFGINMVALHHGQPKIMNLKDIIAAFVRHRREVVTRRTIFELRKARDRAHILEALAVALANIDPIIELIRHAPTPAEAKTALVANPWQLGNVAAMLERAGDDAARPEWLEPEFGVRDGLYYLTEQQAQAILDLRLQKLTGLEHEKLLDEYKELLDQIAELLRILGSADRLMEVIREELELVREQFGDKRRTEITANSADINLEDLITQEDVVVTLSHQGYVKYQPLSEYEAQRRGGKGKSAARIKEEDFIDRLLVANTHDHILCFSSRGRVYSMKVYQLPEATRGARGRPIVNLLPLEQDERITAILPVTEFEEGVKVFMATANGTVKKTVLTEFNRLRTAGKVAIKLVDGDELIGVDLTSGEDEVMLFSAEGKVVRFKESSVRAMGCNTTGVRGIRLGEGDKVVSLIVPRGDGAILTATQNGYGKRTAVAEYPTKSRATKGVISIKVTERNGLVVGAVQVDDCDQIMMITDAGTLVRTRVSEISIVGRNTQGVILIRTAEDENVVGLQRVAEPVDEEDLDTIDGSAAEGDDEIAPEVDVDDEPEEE
Compound,MIC MRSA OM481 [1] [µg/mL],MIC MRSA N315 [2] [µg/mL],MIC MSSA 209P [3] [µg/mL],MIC MRSA OM584 [4] [µg/mL],MIC MRSA COL [5] [µg/mL],MIC VISA Mu50 [6] [µg/mL],MIC VRE FN-1 [7] [µg/mL],MIC VRE NCTC 12201 [8] [µg/mL],MIC (Gram-nagative) K-12 (Escherichia coli K-12) [µg/mL],MIC (Gram-nagative) PAO1 [9] [µg/mL],MIC S. Pneumoniae R6 [10] [µg/mL],IC50 (E. coli DNA gyrase) [µM],IC50 [11] [µM],IC50 [12] [µM],also measured
"CC(=O)OC[C@H]1O[C@@H](Oc2cc(O)c3c(=O)c(O[C@@H]4O[C@H](COC(C)=O)[C@H](OC(C)=O)[C@H](OC(C)=O)[C@H]4OC(C)=O)c(-c4ccc(O)c(O)c4)oc3c2)[C@H](OC(C)=O)[C@@H](OC(C)=O)[C@H]1OC(C)=O [Compound 5, 2-(3′,4′Dihydroxyphenyl)-5-hydroxy-3,7-di-β-D-octaacetylgalactosyl-4H-chromen-4-one]",32,64,64,32,128,64,32,32,>128,>128,64,,,,
"O=C(Cc1ccc(F)cc1)OC[C@H]1O[C@@H](Oc2c(-c3ccc(O)c(O)c3)oc3cc(O)cc(O)c3c2=O)[C@H](OC(=O)Cc2ccc(F)cc2)[C@@H](O)[C@H]1O [Compound 14e, 2-(3′,4′-Dihydroxyphenyl)-5,7-dihydroxy-3-β-D-[2″,6″-di-O-(4-fluorophenylacetyl)]galactosyl-4H-chromen-4-one]",1,1,1,1,8,1,0.5,0.5,>128,>128,0.5,1.05,7.21,0.46,
"O=C(CCCc1ccc(F)cc1)OC[C@H]1O[C@@H](Oc2c(-c3ccc(O)c(O)c3)oc3cc(O)cc(O)c3c2=O)[C@H](OC(=O)CCCc2ccc(F)cc2)[C@@H](O)[C@H]1O [Compound 14j, 2-(3′,4′-Dihydroxyphenyl)-5,7-dihydroxy-3-β-D-{2″,6″-di-O-[3′″-(4-fluorophenylbutanoyl)]}galactosyl-4H-chromen-4-one]",2,4,4,2,16,4,8,8,>128,>128,2,2.98,8.96,2.94,
"CO[C@@H]1[C@@H](OC(N)=O)[C@@H](O)[C@H](Oc2ccc3c(O)c(NC(=O)c4ccc(O)c(CC=C(C)C)c4)c(=O)oc3c2C)OC1(C)C [Novobiocin, novobiocin, reference compound]",,,,,,,,,,,,,,,"MIC ([1]; Staphylococcus aureus, MRSA, read-out: MIC MRSA OM481): 0.25 µg/mL; MIC ([2]; Staphylococcus aureus, MRSA, read-out: MIC MRSA N315): 0.125 µg/mL; MIC ([3]; Staphylococcus aureus, 209P / MSSA, read-out: MIC MSSA 209P): 0.125 µg/mL; MIC ([4]; Staphylococcus aureus, MRSA, read-out: MIC MRSA OM584): 0.25 µg/mL; MIC ([5]; Staphylococcus aureus, MRSA): 0.25 µg/mL; MIC ([6]; Staphylococcus aureus, VISA, read-out: MIC VISA Mu50): 8 µg/mL; MIC (Escherichia coli K-12; K12, MIC after 24 h, read-out: MIC (Gram-nagative) K-12): 8 µg/mL; MIC ([9]; read-out: MIC (Gram-nagative) PAO1): 8 µg/mL"
"O=C(CCCCc1ccc(F)cc1)OC[C@H]1O[C@@H](Oc2c(-c3ccc(O)c(O)c3)oc3cc(O)cc(O)c3c2=O)[C@H](OC(=O)CCCCc2ccc(F)cc2)[C@@H](O)[C@H]1O [Compound 14k, 2-(3′,4′-Dihydroxyphenyl)-5,7-dihydroxy-3-β-D-{2″,6″-di-O-[3′″-(4-fluorophenylpentanoyl)]}galactosyl-4H-chromen-4-one]",4,2,4,4,16,16,16,16,>128,>128,8,5.02,> 12,4.05,
"CCOc1ccc(CCC(=O)OC[C@H]2O[C@@H](Oc3c(-c4ccc(O)c(O)c4)oc4cc(O)cc(O)c4c3=O)[C@H](OC(=O)CCc3ccc(OCC)cc3)[C@@H](O)[C@H]2O)cc1 [Compound 14g, 2-(3′,4′-Dihydroxyphenyl)-5,7-dihydroxy-3-β-D-{2″,6″-di-O-[3′″-(4-ethoxyphenylpropanoyl)]}galactosyl-4H-chromen-4-one]",1,2,2,1,4,1,2,2,>128,>128,8,5.39,> 12,2.99,
"CC(=O)OC[C@H]1O[C@@H](Oc2c(-c3ccc(O)c(O)c3)oc3cc(O)cc(O)c3c2=O)[C@H](OC(C)=O)[C@@H](OC(C)=O)[C@H]1OC(C)=O [Compound 12, 2-(3′,4′-Dihydroxyphenyl)-5,7-dihydroxy-3-β-D-tetraacetylgalactosyl-4H-chromen-4-one]",128,128,128,128,>128,128,64,64,>128,>128,128,,,,
penicillin [reference compound],,,,,,,,,,,0.5,,,,
